“Also recorded” adds a separate entry of the source.
Biological target: T1, NMD3 (Homo sapiens, UniProt Q96D46)
T1 construct: endogenous in cells
T1 sequence (Q96D46 1-503): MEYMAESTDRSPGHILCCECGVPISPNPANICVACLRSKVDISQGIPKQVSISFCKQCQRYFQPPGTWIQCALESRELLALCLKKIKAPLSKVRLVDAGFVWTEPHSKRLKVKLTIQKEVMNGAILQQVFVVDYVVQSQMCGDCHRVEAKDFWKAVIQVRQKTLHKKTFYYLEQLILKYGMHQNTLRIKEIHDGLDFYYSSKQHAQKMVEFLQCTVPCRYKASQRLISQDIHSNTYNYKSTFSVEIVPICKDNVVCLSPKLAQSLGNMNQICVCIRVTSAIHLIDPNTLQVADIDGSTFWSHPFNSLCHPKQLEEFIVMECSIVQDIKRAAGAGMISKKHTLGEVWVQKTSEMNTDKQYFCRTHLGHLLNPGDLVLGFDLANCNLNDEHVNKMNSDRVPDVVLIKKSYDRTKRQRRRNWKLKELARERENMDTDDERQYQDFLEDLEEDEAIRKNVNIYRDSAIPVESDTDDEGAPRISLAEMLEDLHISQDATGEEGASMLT
Assay: Chemo-precipitation / photoaffinity labeling of NMD3
Type: binding
Settings: for competition of PA-DA labeling of endogenous NMD3 / labeling of endogenous NMD3 by probe: Jurkat and HCC1806 cells; for competition of PA-DA labeling of endogenous NMD3: PA-DA 0.5 uM, competitor 5 uM; for labeling of endogenous NMD3 by probe: probe 0.5 uM, UV irradiated
Procedure: FIG. 4. Validation of NMD3 as target of Portimine A by Chemo-precipitation (ChP). Portimine A mouse pharmacokinetic properties and fast acting in vitro cell-based target engagement properties based on compound wash-out. (A) Pharmacokinetic studies of mouse intraperitoneal (i.p.) and oral (p.o.) administration for portimine (n=3). […] Impact of PA [0.3 or 1 mg/kg intraperitoneally] on MC38 tumor growth in WT mice (n=6). (C) Kaplan-Myer survival curve of WT MC38 tumor-bearing mice (n=6) after treatment with PA as described in (D). Mice were euthanized when tumor area exceeded 2000 mm^3. Statistical analysis was performed using ANOVA analysis followed by multiple comparisons test, * p≤0.05. Treatment condition: Jurkat (60 M per condition); PA-DA/ePA-DA concentration: 0.5 uM, PA or ePA: 5 uM; Incubate with probe with or without competitors (PA, ePA) for 30 min; UV irradiated for 20 min. (0.5 uM PA-DA add a no-UV condition); Standard pulldown & biotin-enrichment and western blot analysis (Elute condition: 2× sample buffer+500 uM biotin, boil for 20 mins); Primary antibody NMD3 (ProteinTech, 1:150), Actin (BioRad, 1:10000).
FIG. 5. […] (I, J) Confirmation of PA-DA engagement of NMD3 in Jurkat and HCC1806 cells. […] Treatment condition: Jurkat (5M per well). Portimine A concentration: 2 nM-1000 nM; In total treat cell for 12 hours.
• 1) Portimine A and its functional analogs show stereo-selective acute toxicity in cancer cells (FIG. 1). […] (B) Structure of portimine related analogs: phenyl-portimine A (Ph-PA, 36) and epi-portimine A (ePA, 38). Structure of fully functionalized portimine A-based epimeric probe pair: portimine A-diazirine-alkyne (PA-DA, 35-2) and epi-portimine A-diazirine-alkyne (ePA-DA, 35-1). (C) Cell viability analysis of portimine A and analogs. Jurkat cells were treated with increasing concentrations of portimine A and analogs for 24 hours. All presented data as mean of biological replicated experiments (n=3). […] Jurkat cells were treated with portimine A or analogs for 12 hours at 10 nM. […] Structurally related negative control ePA and PB are non-toxic in all cell types in the current concentrate range. PBMCs (25k per well), Jurkat (10k per well). […] Cell cycle analysis in Jurkat cells (FIG. 2). Jurkat cells were treated with 10 nM of indicated compounds for 24 hours, and propodium iodide was used to identify different stages of cells by flow cytometry. […] (A) PA and Ph-PA show less toxic to healthy PBMCs compared to Jurkat cells. […] (B) Immunoblot of caspase-3 in Jurkat and PBMCs with indicated conditions. […] (A) Pharmacokinetic studies of mouse intraperitoneal (i.p.) and oral (p.o.) administration for portimine (n=3). […] Impact of PA [0.3 or 1 mg/kg intraperitoneally] on MC38 tumor growth in WT mice (n=6). (C) Kaplan-Myer survival curve of WT MC38 tumor-bearing mice (n=6) after treatment with PA as described in (D). Mice were euthanized when tumor area exceeded 2000 mm^3. Statistical analysis was performed using ANOVA analysis followed by multiple comparisons test, * p≤0.05. Treatment condition: Jurkat (60 M per condition); PA-DA/ePA-DA concentration: 0.5 uM, PA or ePA: 5 uM; Incubate with probe with or without competitors (PA, ePA) for 30 min; UV irradiated for 20 min. (0.5 uM PA-DA add a no-UV condition), Standard pulldown & biotin-enrichment and western blot analysis (Elute condition: 2× sample buffer+500 uM biotin, boil for 20 mins); Primary antibody NMD3 (ProteinTech, 1:150), Actin (BioRad, 1:10000). […] Chemical proteomic profiling with PA-DA in Jurkat cells (A, B, C, G) and HCC1806 cells (D, E, F, H) show NMD3 is the primary target candidate of portimine A. Volcano plot in panels A and D show protein competition in cells treated with active photoaffinity probe PA-DA (500 nM) and DMSO or the active competitor portimine A (PA, […]), dotted lines indicate threshold of fold change <4, p-value>0.05. […] (I, J) Confirmation of PA-DA engagement of NMD3 in Jurkat and HCC1806 cells. […] Treatment condition: Jurkat (5M per well). […]

In the case of `C=CC1=C[C@@H]2[C@@H]3O[C@]4(CC[C@H](O4)C(C)C[C@@H](O)C3=O)CC(O)C3=NCC[C@@]32CC1` (stereo partly shown) [PA, portimine A], the “competition of PA-DA labeling of endogenous NMD3” value is reported as “blocked”, the “binding to NMD3 (target validation)” value (endogenous NMD3, Jurkat, pulldown and western blot) is reported as “selectively binds; also recorded: confirmed as a target” and the “nature of the interaction with NMD3” value (no-UV control) is reported as “non-covalent”.

For `C#CCCC1(CCNC(=O)c2ccc(C3=C[C@@H]4[C@@H]5O[C@]6(CC[C@H](O6)C(C)C[C@@H](O)C5=O)CC(O)C5=NCC[C@@]54CC3)cc2)N=N1` (stereo partly shown) [PA-DA, portimine A-diazirine-alkyne], the “binding to recombinantly overexpressed NMD3 in cells” value was “not observed” and the “labeling of endogenous NMD3 by probe” value was “UV-dependent labeling”.

With `C=CC1=C[C@@H]2[C@@H]3O[C@]4(CC[C@H](O4)C(C)C[C@@H](O)C3=O)C[C@@H](O)C3=NCC[C@@]32CC1` (stereo partly drawn) [ePA, epi-portimine A] the “competition of PA-DA labeling of endogenous NMD3” value was “not”.

In the case of `C#CCCC1(CCNC(=O)c2ccc(C3=C[C@@H]4[C@@H]5O[C@]6(CC[C@H](O6)C(C)C[C@@H](O)C5=O)C[C@@H](O)C5=NCC[C@@]54CC3)cc2)N=N1` (stereo partly drawn) [ePA-DA, epi-portimine A-diazirine-alkyne], the “labeling of endogenous NMD3 by probe” value is reported as “not substantially labeled”.

— patent US20260242390A1, “TOTAL SYNTHESES OF PORTIMINE A AND ANALOGUES THEREOF AS SMALL MOLECULE MODULATORS OF NMD3” (priority 2023, published 2026)
